Measurements taken from patent US20240059700A1, “NOVEL DIACYLGLYCERIDE O-ACYLTRANSFERASE 2 INHIBITORS” (Merck Sharp & Dohme LLC, priority 2020, published 2024).

Biological target: human DGAT2 (hDGAT2) (Homo sapiens (Human), UniProt Q96PD7)
Assay: DGAT2 Enzymatic Activity Assay
Format: biochemical
Conditions: membrane prep of Sf-9 insect cells expressing hDGAT2; 13C18-triolein product by LC/MS/MS
How it was run: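 Membranes from Sf-9 cells infected with untagged hDGAT2 baculovirus (8 ng/μL) incubated at rt in 100 mM Tris pH 7.0, 20 mM MgCl2, 5% ethanol with 25 μM diolein and 5 μM 13C oleoyl-CoA. 13C18-triolein product quantified by LC/MS/MS against 13C21-triolein internal standard; IC50 by 4-parameter fit.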

human DGAT2 (hDGAT2), sequence (Q96PD7 whole entry): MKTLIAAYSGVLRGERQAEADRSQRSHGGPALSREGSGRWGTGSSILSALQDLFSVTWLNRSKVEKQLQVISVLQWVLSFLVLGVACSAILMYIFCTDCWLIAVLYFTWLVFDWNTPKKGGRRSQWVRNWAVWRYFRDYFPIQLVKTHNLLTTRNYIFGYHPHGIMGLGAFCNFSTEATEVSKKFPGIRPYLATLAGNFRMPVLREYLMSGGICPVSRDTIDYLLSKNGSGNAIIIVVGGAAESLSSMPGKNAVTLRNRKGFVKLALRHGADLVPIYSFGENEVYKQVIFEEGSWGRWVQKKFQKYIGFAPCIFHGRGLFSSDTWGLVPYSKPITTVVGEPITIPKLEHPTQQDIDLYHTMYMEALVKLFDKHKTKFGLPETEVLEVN

Row | SMILES | IC50
1 | Cc1ncc(OC(F)F)cc1-c1nn(C(C)C)c2cc(C(=O)NC3(C)CS(=O)(=O)C3)ncc12 [Example 35, 3-(5-(difluoromethoxy)-2-methylpyridin-3-yl)-1-isopropyl-N-(3-methyl-1,1-dioxidothietan-3-yl)-1H-pyrazolo[4,3-c]pyridine-6-carboxamide] | 285 nM
2 | Cn1nccc1-c1cn(C2CCOCC2)c2cc(C(=O)N[C@@]3(C)CCS(=O)(=O)C3)c(F)cc12 [Example 83] | 5430 nM
3 | Cc1ncc(OC(F)F)cc1-c1nn(C(C)C)c2cc(C(=O)N[C@]3(C)CS(=O)(=O)C[C@H]3O)cnc12 [Example 56, 3-(5-(difluoromethoxy)-2-methylpyridin-3-yl)-N-((3S,4S)-4-hydroxy-3-methyl-1,1-dioxidotetrahydrothiophen-3-yl)-1-isopropyl-1H-pyrazolo[4,3-b]pyridine-6-carboxamide] | 209 nM
4 | C[C@]1(NC(=O)c2cnc3c(-c4cncc(OC(F)F)c4)cn(C4CCOCC4)c3c2)CCS(=O)(=O)C1 [Example 80, (S)-3-(5-(difluoromethoxy)pyridin-3-yl)-N-(3-methyl-1,1-dioxidotetrahydrothiophen-3-yl)-1-(tetrahydro-2H-pyran-4-yl)-1H-pyrrolo[3,2-b]pyridine-6-carboxamide] | 875 nM
5 | Cn1nccc1-c1nn(C2CCOCC2)c2cc(C(=O)N[C@@]3(C)CCS(=O)(=O)C3)cnc12 [Example 65, N-[(3S)-3-methyl-1,1-dioxo-thiolan-3-yl]-3-(2-methylpyrazol-3-yl)-1-tetrahydropyran-4-yl-pyrazolo[4,3-b]pyridine-6-carboxamide] | 10000 nM
6 | CC(C)n1nc(-c2cccc(S(C)(=O)=O)c2)c2ncc(C(=O)NC3(C)CS(=O)(=O)C3)cc21 [Example 102, 1-isopropyl-N-(3-methyl-1,1-dioxo-thietan-3-yl)-3-(3-methylsulfonylphenyl)pyrazolo[4,3-b]pyridine-6-carboxamide] | 7100 nM

Compounds with a lower IC50, results first:

Row | IC50 | SMILES
7 | 89 nM | C[C@]1(NC(=O)c2cc3c(cn2)c(-c2cncc(OC(F)F)c2)nn3-c2ccc(F)cc2)CCS(=O)(=O)C1 [Example 6, (S)-3-(5-(difluoromethoxy)pyridin-3-yl)-1-(4-fluorophenyl)-N-(3-methyl-1,1-dioxidotetrahydrothiophen-3-yl)-1H-pyrazolo[4,3-c]pyridine-6-carboxamide]
8 | 78 nM | CC(C)n1nc(-c2cncc(OC(F)F)c2)c2ncc(C(=O)N[C@H]3CCC[C@H]3O)cc21 [Example 105, 3-(5-(difluoromethoxy)pyridin-3-yl)-N-((1S,2R)-2-hydroxycyclopentyl)-1-isopropyl-1H-pyrazolo[4,3-b]pyridine-6-carboxamide]
9 | 17 nM | CC(C)n1nc(-c2cccc(OC(F)F)c2)c2ncc(C(=O)N[C@H]3CCCC[C@@H]3O)cc21 [Example 40, 3-[3-(difluoromethoxy)phenyl]-N-[(1S,2S)-2-hydroxycyclohexyl]-1-isopropyl-pyrazolo[4,3-b]pyridine-6-carboxamide]
10 | 7.7 nM | CC(C)n1nc(-c2cc(OCC(F)(F)F)ncc2F)c2ncc(C(=O)NC3(C)CS(=O)(=O)C3)cc21 [Example 122, 3-(5-fluoro-2-(2,2,2-trifluoroethoxy)pyridin-4-yl)-1-isopropyl-N-(3-methyl-1,1-dioxidothietan-3-yl)-1H-pyrazolo[4,3-b]pyridine-6-carboxamide]
11 | 6.1 nM | CC(C)n1nc(-c2cccc(OC(F)F)c2)c2ncc(C(=O)NC3(CO)CCC3)cc21 [Example 49, 3-(3-(difluoromethoxy)phenyl)-N-(1-(hydroxymethyl)cyclobutyl)-1-isopropyl-1H-pyrazolo[4,3-b]pyridine-6-carboxamide]
